The values below are quoted from earlier work in patent publication US20210316003A1 (Immunomedics, Inc., priority 2020, published 2021).

One data set relates to SCLC patients. The following applies: 28 SCLC patients; cited from earlier work.
Data set [1] relates to patients with relapsed SCLC. The conditions noted are these: cited from earlier work.
The test system of data set [2] is patients with advanced colorectal cancer. The conditions noted are these: cited from earlier work.
The next data set deals with patients. The conditions noted are these: single-agent therapy; cited from earlier work.
Data set [3] relates to patients with recurrent SCLC. The following applies: nivolumab alone; cited from earlier work.

Read-outs that look alike come from different tables or passages of the source.

Take `CC[C@@]1(O)C(=O)OCc2c1cc1n(c2=O)Cc2cc3c(CN(C)C)c(O)ccc3nc2-1` [topotecan]: in the data set on SCLC patients, the Median survival is 5 months, the One-year survival is on record as 3.5% and the PR is listed as 11%. In data set [1] (SCLC, meta-analysis), the “Grade ≥3 anemia” value was 24%, the “Grade ≥3 neutropenia” value is listed as 69%, the “Grade ≥3 thrombocytopenia” value is reported as 1% and the “Patients who died from this chemotherapy” value is recorded as “approximately 2%”. In data set [1] (chemoresistant frontline SCLC patients), the Objective response rate is 5%. For the same compound, the Objective response rate in data set [1] (chemosensitive SCLC patients) was 17%.
In the case of `CCc1c2c(nc3ccc(OC(=O)N4CCC(N5CCCCC5)CC4)cc13)-c1cc3c(c(=O)n1C2)COC(=O)[C@]3(O)CC` [irinotecan], the Response is on record as 64% in data set [2] (TDP1 IVS12+79 G/G genotype) and 25% in data set [2] (TDP1 IVS12+79 T/T genotype). The entries for the “Incidence of grade 3/4 neutropenia” value in data set [2] (TOP1 IVS4+61 A/A genotype (small sample size)) and in data set [2] (TOP1 IVS4+61 G/G genotype) were 50% and 8%, respectively. Further, the “Grade ≥3 events of early diarrhea” value with patients is 8%. The “Grade ≥3 events of late diarrhea” value in the data set with patients is reported as 31%.
With “Nivolumab: inhibitor of the T-cell checkpoint receptor PD-1”, the Response rate in data set [3] is 10%.
